Source: patent US20140303164A1, “THERAPEUTIC COMPOUNDS” (Gilead Sciences, Inc., priority 2013, published 2014)

Legend:
[1] = Test B: Cytotoxicity Assay; assay type: cell-based; conditions: human, uninfected MT-4 cells, same protocol as Test A
Summary of the method: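 Uninfected MT-4 cells (2000 per well) incubated with diluted compound at 37° C. for 5 days, following the antiviral protocol without HIV-IIIb.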

[2] = test system: HIV-IIIb; test: Test A: Antiviral Assay in MT4 Cells; assay type: cell-based, HIV-1; conditions: Human immunodeficiency virus 1, IIIB, MT4, 120 h; for inhibition at 0.2 µM: read-out: % inhibition at 0.2 μM; for inhibition at 2 µM: read-out: % inhibition at 2 μM
Method: Test A: Antiviral Assay in MT4 Cells
MT-4 cells were next mixed with HIV-IIIb at an m.o.i of 0.003 for 1 hour, after which time 35 μL of virus/cell mixture (2000 cells) was immediately added to each well containing 40 μL of diluted compound. The plates were then incubated at 37° C. for 5 days. […] Cell lysis was carried out by incubating at room temperature for 10 min and then chemiluminescence was read.

Row | Compound | CC50 at 5 days [1] | inhibition at 0.2 µM [2] | inhibition at 2 µM [2]
1 | Cc1cc2ncn(CC(=O)N[C@@H](Cc3cc(F)cc(F)c3)c3nc(C#CC(C)(C)O)ccc3-c3ccc(Cl)c4c(NS(C)(=O)=O)nn(C)c34)c2cc1C [Compound 199, (S)—N-(1-(3-(4 chloro-1-methyl-3-(methylsulfonamido)-1H-indazol-7-yl)-6-(3-hydroxy-3-methylbut-1-yn-1-yl)pyridin-2-yl)-2-(3,5-difluorophenyl)ethyl)-2-(5,6-dimethyl-1H-benzo[d]imidazol-1-yl)acetamide] | 22.5 µM | 95% | 95%
2 | Cc1ccc(-c2ccc(C#CC(C)(C)C)nc2[C@H](Cc2cc(F)cc(F)c2)NC(=O)Cn2nc(C(F)F)c3c2C(F)(F)[C@@H]2C[C@H]32)c2nnc(NS(C)(=O)=O)n12 [Compound 133, 2-((3bS,4aR)-3-(difluoromethyl)-5,5-difluoro-3b,4,4a,5-tetrahydro-1H-cyclopropa[3,4]cyclopenta[1,2-c]pyrazol-1-yl)-N—((S)-2-(3,5-difluorophenyl)-1-(6-(3,3-dimethylbut-1-yn-1-yl)-3-(5-methyl-3-(methylsulfonamido)-[1,2,4]triazolo[4,3-a]pyridin-8-yl)pyridin-2-yl)ethyl)acetamide] | 16.8 µM | 90% | 90%
3 | COCC(C)(O)C#Cc1ccc(-c2ccc(Cl)c3c(NS(C)(=O)=O)nn(C)c23)c([C@H](Cc2cc(F)cc(F)c2)NC(=O)Cn2nc(C(F)(F)F)c3c2C(F)(F)[C@@H]2C[C@H]32)n1 (stereo partly drawn) [Compound 154, N-((1S)-1-(3-(4-chloro-1-methyl-3-(methylsulfonamido)-1H-indazol-7-yl)-6-(3-hydroxy-4-methoxy-3-methylbut-1-yn-1-yl)pyridin-2-yl)-2-(3,5-difluorophenyl)ethyl)-2-((3bS,4aR)-5,5-difluoro-3-(trifluoromethyl)-3b,4,4a,5-tetrahydro-1H-cyclopropa[3,4]cyclopenta[1,2-c]pyrazol-1-yl)acetamide] | 12.5 µM | 97% | 97%
4 | CC(C)(O)C#Cc1ccc(-c2ccc(Cl)n3c(NS(C)(=O)=O)nnc23)c([C@H](Cc2cc(F)cc(F)c2)NC(=O)Cn2nc(C(F)F)c3c2C(F)(F)[C@@H]2C[C@H]32)n1 [Compound 110E, N—((S)-1-(3-(5-chloro-3-(methylsulfonamido)-[1,2,4]triazolo[4,3-a]pyridin-8-yl)-6-(3-hydroxy-3-methylbut-1-yn-1-yl)pyridin-2-yl)-2-(3,5-difluorophenyl)ethyl)-2-((3b-S,4aR)-3-(difluoromethyl)-5,5-difluoro-3b,4,4a,5-tetrahydro-1H-cyclopropa[3,4]cyclopenta[1,2-c]pyrazol-1-yl)acetamide] | > 53.2 µM | 15% | 98%
5 | COc1ccc(-c2ccc(C#CC(C)(C)C)nc2[C@H](Cc2cc(F)cc(F)c2)NC(=O)Cn2nc(C(F)F)c3c2C(F)(F)[C@@H]2C[C@H]32)c2nnc(NS(C)(=O)=O)n12 [Compound 130, 2-((3bS,4aR)-3-(difluoromethyl)-5,5-difluoro-3b,4,4a,5-tetrahydro-1H-cyclopropa[3,4]cyclopenta[1,2-c]pyrazol-1-yl)-N—((S)-2-(3,5-difluorophenyl)-1-(6-(3,3-dimethylbut-1-yn-1-yl)-3-(5-methoxy-3-(methylsulfonamido)-[1,2,4]triazolo[4,3-a]pyridin-8-yl)pyridin-2-yl)ethyl)acetamide] | 23.2 µM | 80% | 85%
6 | O=C(Cn1nc(C(F)F)c2c1C(F)(F)CCC2(F)F)N[C@@H](Cc1cc(F)cc(F)c1)c1nc(-c2c[nH]nn2)ccc1-c1cnc2[nH]ccc2c1 [Compound 16C, (S)—N-(1-(3-(1H-pyrrolo[2,3-b]pyridin-5-yl)-6-(1H-1,2,3-triazol-4-yl)pyridin-2-yl)-2-(3,5-difluorophenyl)ethyl)-2-(3-(difluoromethyl)-4,4,7,7-tetrafluoro-4,5,6,7-tetrahydro-1H-indazol-1-yl)acetamide] | 3.67 µM | 23% | 65%
7 | Cn1nc(N)c2c(Cl)ccc(-c3ccc(C#CC(C)(C)O)nc3[C@H](Cc3cc(F)cc(F)c3)NC(=O)Cn3nc(C(F)F)c4c3C(F)(F)[C@@H]3C[C@H]43)c21 [Compound 57, N—((S)-1-(3-(3-amino-4-chloro-1-methyl-1H-indazol-7-yl)-6-(3-hydroxy-3-methylbut-1-yn-1-yl)pyridin-2-yl)-2-(3,5-difluorophenyl)ethyl)-2-((3bS,4aR)-3-(difluoromethyl)-5,5-difluoro-3b,4,4a,5-tetrahydro-1H-cyclopropa[3,4]cyclopenta[1,2-c]pyrazol-1-yl)acetamide] | 7.63 µM | 93% | 93%
8 | Cn1nc(NS(C)(=O)=O)c2cccc(-c3ccc(C#CC(C)(C)O)nc3[C@H](Cc3cc(F)cc(F)c3)NC(=O)Cn3nc(C(F)(F)F)c4c3C(F)(F)[C@@H]3C[C@H]43)c21 [Compound 33F, 2-((3bS,4aR)-5,5-difluoro-3-(trifluoromethyl)-3b,4,4a,5-tetrahydro-1H-cyclopropa[3,4]cyclopenta[1,2-c]pyrazol-1-yl)-N—((S)-2-(3,5-difluorophenyl)-1-(6-(3-hydroxy-3-methylbut-1-yn-1-yl)-3-(1-methyl-3-(methylsulfonamido)-1H-indazol-7-yl)pyridin-2-yl)ethyl)acetamide] | 12.9 µM | 93% | 93%
9 | CN(C)CC(=O)Nc1nn(C)c2c(-c3ccc(C#CC(C)(C)O)nc3[C@H](Cc3cc(F)cc(F)c3)NC(=O)Cn3nc(C(F)F)c4c3C(F)(F)[C@@H]3C[C@H]43)ccc(Cl)c12 [Compound 99B, N—((S)-1-(3-(4-chloro-3-(2-(dimethylamino)acetamido)-1-methyl-1H-indazol-7-yl)-6-(3-hydroxy-3-methylbut-1-yn-1-yl)pyridin-2-yl)-2-(3,5-difluorophenyl)ethyl)-2-((3b-S,4aR)-3-(difluoromethyl)-5,5-difluoro-3b,4,4a,5-tetrahydro-1H-cyclopropa[3,4]cyclopenta[1,2-c]pyrazol-1-yl)acetamide] | 6.37 µM | 100% | 100%
10 | CNc1cc(-c2ccc(Cl)c3c(NS(C)(=O)=O)nn(C)c23)c([C@H](Cc2cc(F)cc(F)c2)NC(=O)Cn2nc(C(F)F)c3c2C(F)(F)[C@@H]2C[C@H]32)nc1C#CC(C)(C)O [Compound 182L, N—((S)-1-(3-(4-chloro-1-methyl-3-(methylsulfonamido)-1H-indazol-7-yl)-6-(3-hydroxy-3-methylbut-1-yn-1-yl)-5-(methylamino)pyridin-2-yl)-2-(3,5-difluorophenyl)ethyl)-2-((3b-S,4aR)-3-(difluoromethyl)-5,5-difluoro-3b,4,4a,5-tetrahydro-1H-cyclopropa[3,4]cyclopenta[1,2-c]pyrazol-1-yl)acetamide] | 9.83 µM | 100% | 100%
